In the kinase profiling compilation of Christmann-Franck et al. (2016):

Legend:
Assay in all cases: KINOMEscan competition binding
Conditions in all cases: compound 10.0 µM
[1] = test system: EGFR (human), P00533 [747-751 del / S ins]
[2] = molecular target: PRKACB (human) (UniProt P22694)
[3] = molecular target: KDR (human) (UniProt P35968)
[4] = molecular target: MAPKAPK2 (human) (UniProt P49137)
[5] = molecular target: CSNK2A2 (human) (UniProt P19784)
[6] = molecular target: PRKCI (human) (UniProt P41743)
[7] = molecular target: SGK110 (human) (UniProt P0C264)
[8] = molecular target: CDKL1 (human) (UniProt Q00532)
[9] = molecular target: MLTK (human) (UniProt Q9NYL2)
[10] = molecular target: MAP3K9 (human) (UniProt P80192)
[11] = molecular target: EPHB2 (human) (UniProt P29323)
[12] = molecular target: EPHA3 (human) (UniProt P29320)
[13] = molecular target: CHEK1 (human) (UniProt O14757)
[14] = test system: ABL1 (human), P00519 [E255K]
[15] = molecular target: RPS6KA6 KD2 (human) (UniProt Q9UK32)
[16] = molecular target: BRSK2 (human) (UniProt Q8IWQ3)
[17] = molecular target: DAPK2 (human) (UniProt Q9UIK4)
[18] = molecular target: CaMK1 (human) (UniProt Q14012)
[19] = molecular target: PHKG1 (human) (UniProt Q16816)
[20] = molecular target: RPS6KB1 (human) (UniProt P23443)
[21] = molecular target: STK33 (human) (UniProt Q9BYT3)
[22] = molecular target: HCK (human) (UniProt P08631)
[23] = molecular target: RIPK2 (human) (UniProt O43353)
[24] = molecular target: TAOK2 (human) (UniProt Q9UL54)
[25] = molecular target: FGFR1 (human) (UniProt P11362)
[26] = molecular target: LRRK2 (human) (UniProt Q5S007)
[27] = molecular target: STK39 (human) (UniProt Q9UEW8)
[28] = molecular target: CHUK (human) (UniProt O15111)
[29] = molecular target: CAMK2D (human) (UniProt Q13557)
[30] = molecular target: MYO3A (human) (UniProt Q8NEV4)
[31] = molecular target: TAOK3 (human) (UniProt Q9H2K8)
[32] = molecular target: MAP4K2 (human) (UniProt Q12851)
[33] = molecular target: CDKL2 (human) (UniProt Q92772)
[34] = molecular target: IRAK4 (human) (UniProt Q9NWZ3)
[35] = molecular target: PIP5K1C (human) (UniProt O60331)
[36] = molecular target: RPS6KA4 KD2 (human) (UniProt O75676)
[37] = molecular target: MAK (human) (UniProt P20794)
[38] = molecular target: INSRR (human) (UniProt P14616)
[39] = molecular target: FLT4 (human) (UniProt P35916)
[40] = molecular target: MKNK1 (human) (UniProt Q9BUB5)
[41] = molecular target: MYLK2 (human) (UniProt Q9H1R3)
[42] = molecular target: AURKC (human) (UniProt Q9UQB9)
Chain of AURKC (human) (Q9UQB9 whole entry, looked up): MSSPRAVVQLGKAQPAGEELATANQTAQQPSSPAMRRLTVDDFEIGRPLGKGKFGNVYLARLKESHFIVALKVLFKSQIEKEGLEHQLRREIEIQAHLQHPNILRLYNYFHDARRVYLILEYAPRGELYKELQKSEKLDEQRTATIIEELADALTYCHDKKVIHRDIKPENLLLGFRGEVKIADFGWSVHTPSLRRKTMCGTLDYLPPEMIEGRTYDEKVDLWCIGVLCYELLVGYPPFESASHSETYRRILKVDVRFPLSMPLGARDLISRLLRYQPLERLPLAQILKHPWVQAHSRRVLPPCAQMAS

Chain of TAOK2 (human) (Q9UL54 whole entry, looked up): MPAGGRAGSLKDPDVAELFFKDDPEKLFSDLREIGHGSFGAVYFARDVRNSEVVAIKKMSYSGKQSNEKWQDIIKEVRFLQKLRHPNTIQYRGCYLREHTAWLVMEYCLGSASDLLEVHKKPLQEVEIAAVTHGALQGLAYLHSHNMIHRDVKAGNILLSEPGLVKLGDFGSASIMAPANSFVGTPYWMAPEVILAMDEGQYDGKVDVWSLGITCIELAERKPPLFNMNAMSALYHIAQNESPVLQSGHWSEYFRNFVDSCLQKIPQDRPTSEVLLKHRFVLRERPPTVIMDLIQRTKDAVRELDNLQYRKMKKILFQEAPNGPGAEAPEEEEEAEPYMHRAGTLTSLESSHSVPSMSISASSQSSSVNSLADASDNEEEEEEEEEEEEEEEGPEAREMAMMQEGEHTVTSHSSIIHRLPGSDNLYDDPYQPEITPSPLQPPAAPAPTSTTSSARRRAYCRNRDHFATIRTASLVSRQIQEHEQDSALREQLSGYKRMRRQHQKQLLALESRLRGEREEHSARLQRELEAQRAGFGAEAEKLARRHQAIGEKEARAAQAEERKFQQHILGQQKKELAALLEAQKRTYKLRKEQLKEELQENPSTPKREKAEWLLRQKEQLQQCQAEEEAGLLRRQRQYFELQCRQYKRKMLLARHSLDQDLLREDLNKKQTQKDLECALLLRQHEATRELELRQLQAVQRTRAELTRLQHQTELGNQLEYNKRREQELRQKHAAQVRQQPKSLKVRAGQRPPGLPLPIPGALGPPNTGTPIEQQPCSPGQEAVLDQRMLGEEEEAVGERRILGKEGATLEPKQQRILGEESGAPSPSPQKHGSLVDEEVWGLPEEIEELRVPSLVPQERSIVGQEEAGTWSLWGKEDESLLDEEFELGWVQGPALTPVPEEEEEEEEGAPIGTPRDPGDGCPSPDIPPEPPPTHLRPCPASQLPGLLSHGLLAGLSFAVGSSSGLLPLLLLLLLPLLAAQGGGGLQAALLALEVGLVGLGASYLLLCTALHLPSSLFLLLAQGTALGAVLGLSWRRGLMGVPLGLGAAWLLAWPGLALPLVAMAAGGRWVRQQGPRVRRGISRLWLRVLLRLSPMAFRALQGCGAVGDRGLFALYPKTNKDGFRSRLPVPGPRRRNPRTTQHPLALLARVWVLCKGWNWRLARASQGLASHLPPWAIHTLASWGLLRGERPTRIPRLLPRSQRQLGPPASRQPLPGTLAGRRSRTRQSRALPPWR
Chain of MAPKAPK2 (human) (P49137 whole entry, looked up): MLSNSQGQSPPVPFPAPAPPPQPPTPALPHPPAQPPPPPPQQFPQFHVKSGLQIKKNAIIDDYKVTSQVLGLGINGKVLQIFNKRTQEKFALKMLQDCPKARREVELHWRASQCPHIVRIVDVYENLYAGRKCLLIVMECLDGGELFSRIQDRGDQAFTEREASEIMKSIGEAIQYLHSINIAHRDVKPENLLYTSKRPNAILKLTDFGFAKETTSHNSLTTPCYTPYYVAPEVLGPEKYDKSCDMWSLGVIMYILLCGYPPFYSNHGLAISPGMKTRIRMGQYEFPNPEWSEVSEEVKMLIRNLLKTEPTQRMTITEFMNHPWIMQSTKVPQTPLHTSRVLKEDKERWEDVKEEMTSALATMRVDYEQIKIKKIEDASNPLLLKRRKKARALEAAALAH
Chain of RPS6KB1 (human) (P23443 whole entry, looked up): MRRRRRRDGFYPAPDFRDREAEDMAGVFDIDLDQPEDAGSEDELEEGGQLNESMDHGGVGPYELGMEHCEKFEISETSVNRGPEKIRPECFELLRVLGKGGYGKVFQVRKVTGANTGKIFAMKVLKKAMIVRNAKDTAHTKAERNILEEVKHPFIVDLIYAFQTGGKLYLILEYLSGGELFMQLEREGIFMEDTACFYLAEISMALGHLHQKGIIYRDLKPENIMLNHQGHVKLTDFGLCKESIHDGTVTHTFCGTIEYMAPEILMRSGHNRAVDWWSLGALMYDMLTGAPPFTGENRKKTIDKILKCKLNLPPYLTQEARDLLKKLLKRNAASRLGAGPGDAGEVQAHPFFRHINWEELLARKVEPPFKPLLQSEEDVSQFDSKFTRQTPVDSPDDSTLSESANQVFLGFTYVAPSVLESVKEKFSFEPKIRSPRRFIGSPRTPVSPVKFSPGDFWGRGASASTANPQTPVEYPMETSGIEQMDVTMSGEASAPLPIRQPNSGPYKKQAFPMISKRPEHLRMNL
Chain of INSRR (human) (P14616 whole entry, looked up): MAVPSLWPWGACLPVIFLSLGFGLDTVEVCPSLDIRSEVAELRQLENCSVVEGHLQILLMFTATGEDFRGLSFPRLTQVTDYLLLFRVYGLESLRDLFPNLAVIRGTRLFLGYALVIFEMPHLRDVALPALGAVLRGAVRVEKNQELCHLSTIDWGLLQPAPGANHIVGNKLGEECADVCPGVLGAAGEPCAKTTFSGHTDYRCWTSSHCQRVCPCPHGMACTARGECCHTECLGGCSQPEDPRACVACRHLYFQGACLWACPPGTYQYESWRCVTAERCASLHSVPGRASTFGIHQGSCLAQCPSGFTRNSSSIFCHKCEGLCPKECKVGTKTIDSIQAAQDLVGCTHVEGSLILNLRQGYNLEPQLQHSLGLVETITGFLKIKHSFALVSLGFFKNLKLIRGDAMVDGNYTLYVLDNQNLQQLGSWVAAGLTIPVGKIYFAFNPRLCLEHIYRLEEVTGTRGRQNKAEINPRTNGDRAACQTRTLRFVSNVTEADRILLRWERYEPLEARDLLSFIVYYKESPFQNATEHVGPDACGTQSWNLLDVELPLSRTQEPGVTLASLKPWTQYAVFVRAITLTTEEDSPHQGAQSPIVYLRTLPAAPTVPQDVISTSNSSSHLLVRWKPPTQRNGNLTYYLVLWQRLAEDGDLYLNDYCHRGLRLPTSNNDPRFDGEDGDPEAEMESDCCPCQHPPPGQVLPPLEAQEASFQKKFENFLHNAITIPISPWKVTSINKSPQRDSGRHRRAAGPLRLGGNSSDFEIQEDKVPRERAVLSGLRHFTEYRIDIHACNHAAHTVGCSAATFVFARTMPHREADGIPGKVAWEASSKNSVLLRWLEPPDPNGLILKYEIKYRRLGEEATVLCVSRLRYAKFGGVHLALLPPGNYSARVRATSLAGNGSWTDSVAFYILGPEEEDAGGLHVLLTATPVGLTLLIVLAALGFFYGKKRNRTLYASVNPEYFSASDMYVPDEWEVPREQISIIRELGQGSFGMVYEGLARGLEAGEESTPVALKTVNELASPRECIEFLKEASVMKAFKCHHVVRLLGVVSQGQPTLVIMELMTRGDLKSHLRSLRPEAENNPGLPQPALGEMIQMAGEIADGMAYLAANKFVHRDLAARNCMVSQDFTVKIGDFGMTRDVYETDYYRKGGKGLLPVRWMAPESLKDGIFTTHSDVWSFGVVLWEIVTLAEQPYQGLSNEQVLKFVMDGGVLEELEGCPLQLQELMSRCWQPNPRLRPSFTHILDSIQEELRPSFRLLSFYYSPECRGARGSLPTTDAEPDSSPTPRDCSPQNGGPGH
Chain of TAOK3 (human) (Q9H2K8 whole entry, looked up): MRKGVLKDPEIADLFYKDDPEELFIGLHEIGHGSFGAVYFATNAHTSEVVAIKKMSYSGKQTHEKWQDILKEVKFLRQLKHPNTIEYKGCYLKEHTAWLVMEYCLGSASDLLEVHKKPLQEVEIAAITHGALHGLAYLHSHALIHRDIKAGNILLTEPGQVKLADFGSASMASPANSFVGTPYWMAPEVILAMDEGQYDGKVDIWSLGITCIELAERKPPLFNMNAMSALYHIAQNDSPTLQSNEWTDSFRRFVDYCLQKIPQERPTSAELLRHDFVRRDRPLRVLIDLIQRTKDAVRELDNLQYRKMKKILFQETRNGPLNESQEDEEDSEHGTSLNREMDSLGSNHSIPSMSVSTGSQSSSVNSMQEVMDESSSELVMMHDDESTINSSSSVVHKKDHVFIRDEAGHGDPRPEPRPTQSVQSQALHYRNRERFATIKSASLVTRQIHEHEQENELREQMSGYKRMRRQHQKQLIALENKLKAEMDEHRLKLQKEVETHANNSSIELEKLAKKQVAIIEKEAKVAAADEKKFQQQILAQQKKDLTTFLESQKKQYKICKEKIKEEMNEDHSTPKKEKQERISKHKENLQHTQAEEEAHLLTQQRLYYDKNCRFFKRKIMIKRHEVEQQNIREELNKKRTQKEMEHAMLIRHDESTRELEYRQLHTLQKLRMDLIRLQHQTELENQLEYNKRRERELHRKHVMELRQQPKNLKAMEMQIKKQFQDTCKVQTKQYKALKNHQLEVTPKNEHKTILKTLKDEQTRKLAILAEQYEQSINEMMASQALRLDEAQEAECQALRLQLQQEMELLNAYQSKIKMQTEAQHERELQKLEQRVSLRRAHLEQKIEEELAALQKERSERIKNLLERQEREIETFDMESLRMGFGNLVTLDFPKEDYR
Chain of CDKL1 (human) (Q00532 whole entry, looked up): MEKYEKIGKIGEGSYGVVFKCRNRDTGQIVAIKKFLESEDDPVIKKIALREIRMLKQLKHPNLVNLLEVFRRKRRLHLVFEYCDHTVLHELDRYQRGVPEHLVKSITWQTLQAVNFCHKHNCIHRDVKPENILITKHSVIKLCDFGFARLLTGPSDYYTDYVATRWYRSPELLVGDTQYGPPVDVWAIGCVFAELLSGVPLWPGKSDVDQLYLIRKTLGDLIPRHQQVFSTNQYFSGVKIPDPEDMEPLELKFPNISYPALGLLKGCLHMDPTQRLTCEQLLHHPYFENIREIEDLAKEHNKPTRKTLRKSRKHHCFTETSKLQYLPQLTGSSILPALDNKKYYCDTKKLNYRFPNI

Cc1cc([C@@H](C)Nc2ccccc2C(=O)O)c2nc(N3CCOCC3)cc(=O)n2c1
kinase still bound, per cent of control [1]: 68% | kinase still bound, per cent of control [2]: 62% | kinase still bound, per cent of control [3]: 100% | kinase still bound, per cent of control [4]: 95% | kinase still bound, per cent of control [5]: 64% | kinase still bound, per cent of control [6]: 94% | kinase still bound, per cent of control [7]: 68% | kinase still bound, per cent of control [8]: 100% | kinase still bound, per cent of control [9]: 100% | kinase still bound, per cent of control [10]: 100% | kinase still bound, per cent of control [11]: 100% | kinase still bound, per cent of control [12]: 85% | kinase still bound, per cent of control [13]: 64% | kinase still bound, per cent of control [14]: 100% | kinase still bound, per cent of control [15]: 71% | kinase still bound, per cent of control [16]: 94% | kinase still bound, per cent of control [17]: 74% | kinase still bound, per cent of control [18]: 94% | kinase still bound, per cent of control [19]: 100% | kinase still bound, per cent of control [20]: 100% | kinase still bound, per cent of control [21]: 100% | kinase still bound, per cent of control [22]: 60% | kinase still bound, per cent of control [23]: 52% | kinase still bound, per cent of control [24]: 89% | kinase still bound, per cent of control [25]: 97% | kinase still bound, per cent of control [26]: 97% | kinase still bound, per cent of control [27]: 58% | kinase still bound, per cent of control [28]: 69% | kinase still bound, per cent of control [29]: 100% | kinase still bound, per cent of control [30]: 100% | kinase still bound, per cent of control [31]: 95% | kinase still bound, per cent of control [32]: 97% | kinase still bound, per cent of control [33]: 100% | kinase still bound, per cent of control [34]: 100% | kinase still bound, per cent of control [35]: 55% | kinase still bound, per cent of control [36]: 83% | kinase still bound, per cent of control [37]: 100% | kinase still bound, per cent of control [38]: 100% | kinase still bound, per cent of control [39]: 100% | kinase still bound, per cent of control [40]: 31% | kinase still bound, per cent of control [41]: 94% | kinase still bound, per cent of control [42]: 91%
